The target in assay [1] is T1, Gastrin/cholecystokinin type B receptor (Homo sapiens, UniProt P32239).
T1 sequence (P32239 whole entry): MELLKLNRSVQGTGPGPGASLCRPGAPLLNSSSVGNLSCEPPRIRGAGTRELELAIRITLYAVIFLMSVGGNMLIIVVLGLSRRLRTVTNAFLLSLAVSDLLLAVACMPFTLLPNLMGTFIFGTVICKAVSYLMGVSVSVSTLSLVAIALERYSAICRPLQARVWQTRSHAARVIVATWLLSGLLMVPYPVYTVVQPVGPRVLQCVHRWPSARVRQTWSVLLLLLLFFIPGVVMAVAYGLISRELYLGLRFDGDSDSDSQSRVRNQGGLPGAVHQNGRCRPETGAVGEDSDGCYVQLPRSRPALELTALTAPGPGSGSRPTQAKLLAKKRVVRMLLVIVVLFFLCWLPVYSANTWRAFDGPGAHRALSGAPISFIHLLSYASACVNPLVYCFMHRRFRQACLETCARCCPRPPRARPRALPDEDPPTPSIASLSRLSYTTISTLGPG

In assay [2] the target is Sodium-dependent serotonin transporter (Homo sapiens, UniProt P31645).
In assay [3] the target is T2, Alpha-2B adrenergic receptor (Homo sapiens, UniProt P18089).
T2 sequence (P18089 whole entry): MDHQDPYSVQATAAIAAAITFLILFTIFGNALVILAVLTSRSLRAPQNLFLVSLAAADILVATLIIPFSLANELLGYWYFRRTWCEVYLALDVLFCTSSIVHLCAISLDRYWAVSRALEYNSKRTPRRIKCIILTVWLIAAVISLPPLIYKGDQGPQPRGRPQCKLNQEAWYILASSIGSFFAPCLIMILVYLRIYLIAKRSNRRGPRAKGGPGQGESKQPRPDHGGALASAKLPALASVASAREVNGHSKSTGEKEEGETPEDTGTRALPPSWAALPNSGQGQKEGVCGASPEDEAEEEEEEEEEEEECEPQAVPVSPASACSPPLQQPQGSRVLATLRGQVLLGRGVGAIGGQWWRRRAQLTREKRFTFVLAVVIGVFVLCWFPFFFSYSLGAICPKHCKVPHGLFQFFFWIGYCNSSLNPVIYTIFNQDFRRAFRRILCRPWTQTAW

The target of assay [4] is T3, Alpha-1A adrenergic receptor (Homo sapiens, UniProt P35348).
T3 sequence (P35348 whole entry): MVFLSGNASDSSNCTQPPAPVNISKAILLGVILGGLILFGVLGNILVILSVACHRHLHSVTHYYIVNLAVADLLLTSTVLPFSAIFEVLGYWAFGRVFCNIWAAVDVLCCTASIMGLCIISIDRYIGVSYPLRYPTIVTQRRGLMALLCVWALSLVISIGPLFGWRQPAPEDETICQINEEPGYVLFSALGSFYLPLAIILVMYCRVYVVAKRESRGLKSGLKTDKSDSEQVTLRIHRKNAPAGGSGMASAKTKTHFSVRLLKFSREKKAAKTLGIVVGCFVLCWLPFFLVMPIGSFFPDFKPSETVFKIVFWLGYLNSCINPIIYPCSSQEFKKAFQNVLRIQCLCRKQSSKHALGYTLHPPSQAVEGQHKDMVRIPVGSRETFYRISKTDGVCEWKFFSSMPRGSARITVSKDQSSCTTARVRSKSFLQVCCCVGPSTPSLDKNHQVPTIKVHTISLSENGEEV
It counts as functional, cell-based.

For assay [5], the target named is T4, Equilibrative nucleoside transporter 1 (Homo sapiens, UniProt Q99808).
T4 sequence (Q99808 whole entry): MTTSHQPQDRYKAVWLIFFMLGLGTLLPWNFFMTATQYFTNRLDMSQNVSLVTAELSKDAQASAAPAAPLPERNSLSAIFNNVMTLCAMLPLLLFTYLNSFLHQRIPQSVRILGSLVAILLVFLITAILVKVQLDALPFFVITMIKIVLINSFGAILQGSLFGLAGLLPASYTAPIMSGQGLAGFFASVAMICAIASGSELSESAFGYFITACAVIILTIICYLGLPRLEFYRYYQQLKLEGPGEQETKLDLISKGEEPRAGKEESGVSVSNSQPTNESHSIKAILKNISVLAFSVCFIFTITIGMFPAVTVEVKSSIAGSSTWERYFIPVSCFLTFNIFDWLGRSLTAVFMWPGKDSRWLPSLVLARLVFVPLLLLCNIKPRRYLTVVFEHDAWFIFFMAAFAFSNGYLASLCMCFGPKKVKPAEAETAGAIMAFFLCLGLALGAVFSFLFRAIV

Assay [6] has as its target T3, Alpha-1A adrenergic receptor. It is filed as functional, cell-based. This is another data set of the same source.
The target of assay [7] is Muscarinic acetylcholine receptor M3 (Homo sapiens, UniProt P20309).
Assay [8] has as its target T5, 5-hydroxytryptamine receptor 1A (Homo sapiens, UniProt P08908).
T5 sequence (P08908 whole entry): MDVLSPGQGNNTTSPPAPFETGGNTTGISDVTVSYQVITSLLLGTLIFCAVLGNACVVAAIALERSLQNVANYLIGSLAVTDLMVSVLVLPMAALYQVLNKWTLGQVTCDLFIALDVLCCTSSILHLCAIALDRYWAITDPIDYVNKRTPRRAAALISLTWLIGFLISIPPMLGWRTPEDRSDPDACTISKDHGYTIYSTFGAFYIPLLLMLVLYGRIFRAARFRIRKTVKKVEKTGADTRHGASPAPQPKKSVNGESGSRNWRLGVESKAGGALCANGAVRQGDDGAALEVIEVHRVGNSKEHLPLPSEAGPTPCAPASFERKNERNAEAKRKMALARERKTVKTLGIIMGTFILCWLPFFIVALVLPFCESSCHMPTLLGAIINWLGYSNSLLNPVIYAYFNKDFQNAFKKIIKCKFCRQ
It counts as functional, cell-based.

The target in assay [9] is T6, Muscarinic acetylcholine receptor M2 (Homo sapiens, UniProt P08172).
T6 sequence (P08172 whole entry): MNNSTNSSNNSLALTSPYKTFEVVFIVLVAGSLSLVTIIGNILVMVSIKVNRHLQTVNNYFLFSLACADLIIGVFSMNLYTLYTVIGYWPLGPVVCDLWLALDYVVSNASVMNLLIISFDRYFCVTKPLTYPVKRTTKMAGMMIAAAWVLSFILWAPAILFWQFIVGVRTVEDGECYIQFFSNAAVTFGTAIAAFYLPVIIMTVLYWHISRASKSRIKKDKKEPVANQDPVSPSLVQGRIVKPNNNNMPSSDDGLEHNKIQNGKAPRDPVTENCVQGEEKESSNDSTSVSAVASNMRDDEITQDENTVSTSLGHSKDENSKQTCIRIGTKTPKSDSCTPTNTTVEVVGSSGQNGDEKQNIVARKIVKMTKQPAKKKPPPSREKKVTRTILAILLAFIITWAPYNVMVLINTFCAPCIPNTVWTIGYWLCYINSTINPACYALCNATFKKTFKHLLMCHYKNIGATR
It counts as functional, cell-based.

For orientation: AC50 means the concentration at which the activity in the assay is half-maximal. The low end stands for greater potency, the high end for weaker potency.
Note: assay procedure not described here.

Sequence of Sodium-dependent serotonin transporter (P31645 whole entry): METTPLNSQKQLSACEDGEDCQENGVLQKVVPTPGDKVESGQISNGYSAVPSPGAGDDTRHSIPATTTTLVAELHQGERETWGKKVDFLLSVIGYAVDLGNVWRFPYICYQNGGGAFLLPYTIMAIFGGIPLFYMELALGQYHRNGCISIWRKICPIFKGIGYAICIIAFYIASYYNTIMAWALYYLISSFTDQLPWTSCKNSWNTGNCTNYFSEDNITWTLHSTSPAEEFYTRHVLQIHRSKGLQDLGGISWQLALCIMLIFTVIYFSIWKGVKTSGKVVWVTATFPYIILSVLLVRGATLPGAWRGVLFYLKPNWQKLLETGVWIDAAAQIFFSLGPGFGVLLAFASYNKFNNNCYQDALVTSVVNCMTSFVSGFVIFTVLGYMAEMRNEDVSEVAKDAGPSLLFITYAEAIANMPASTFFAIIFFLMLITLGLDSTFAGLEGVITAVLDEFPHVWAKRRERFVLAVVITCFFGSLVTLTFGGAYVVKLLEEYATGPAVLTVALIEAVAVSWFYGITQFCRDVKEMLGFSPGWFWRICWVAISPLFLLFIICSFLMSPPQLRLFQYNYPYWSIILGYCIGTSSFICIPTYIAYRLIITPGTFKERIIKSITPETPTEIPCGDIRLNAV
Sequence of Muscarinic acetylcholine receptor M3 (P20309 whole entry): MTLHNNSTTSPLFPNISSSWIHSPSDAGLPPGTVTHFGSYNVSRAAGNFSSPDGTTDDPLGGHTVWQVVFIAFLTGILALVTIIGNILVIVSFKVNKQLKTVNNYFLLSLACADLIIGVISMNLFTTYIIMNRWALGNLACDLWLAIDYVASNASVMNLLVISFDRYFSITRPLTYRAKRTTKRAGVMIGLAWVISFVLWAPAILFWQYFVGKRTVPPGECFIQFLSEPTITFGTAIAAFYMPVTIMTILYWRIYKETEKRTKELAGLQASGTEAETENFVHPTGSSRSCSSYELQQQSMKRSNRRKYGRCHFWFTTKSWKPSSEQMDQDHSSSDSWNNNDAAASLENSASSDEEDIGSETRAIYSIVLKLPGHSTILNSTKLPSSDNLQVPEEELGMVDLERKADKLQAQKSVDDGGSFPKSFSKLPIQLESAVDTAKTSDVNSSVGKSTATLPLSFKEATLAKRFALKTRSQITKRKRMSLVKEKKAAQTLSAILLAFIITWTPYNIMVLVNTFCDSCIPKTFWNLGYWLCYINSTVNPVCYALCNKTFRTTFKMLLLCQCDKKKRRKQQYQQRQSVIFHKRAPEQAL

On to `C[C@]1(COc2ccc(N3CCC(Oc4ccc(OC(F)(F)F)cc4)CC3)cc2)Cn2cc([N+](=O)[O-])nc2O1`, for which the AC50 in [1] is > 30 µM; in assay [2], > 10 µM; in assay [3], > 10 µM.
As for `CC(=O)OCC[N+](C)(C)C` [ACETYLCHOLINE], the AC50 is > 30 µM in assay [1]; > 30 µM in assay [2]; > 30 µM in [4]; > 30 µM in assay [5]; > 10 µM in [3]; > 30 µM in [6].
Take `O=C(Nc1nc(-c2cc(Cl)cs2)c(N2CCN(C3CCCCC3)CC2)s1)c1cnc(N2CCC(C(=O)O)CC2)c(Cl)c1` [AVATROMBOPAG]: the AC50 in assay [1], in assay [7], in assay [2], in [5] and in [3] was > 10 µM in each case.
As for `CN(C)C(=O)Oc1cc(OC(=O)N(C)C)cc(C(O)CNC(C)(C)C)c1` (centres undefined) [BAMBUTEROL], the AC50 in [1] and in assay [5] was > 30 µM in each case.
For `C[C@H]1C[C@H]2[C@@H]3CCC4=CC(=O)C=C[C@]4(C)[C@@]3(Cl)[C@@H](O)C[C@]2(C)[C@@]1(O)C(=O)CO` [BECLOMETHASONE], the AC50 in assay [1] and in assay [5] was > 30 µM in each case.
As for `CO[C@@]1(NC(=O)CSCC#N)C(=O)N2C(C(=O)O)=C(CSc3nnnn3C)CS[C@@H]21` [CEFMETAZOLE], the AC50 in assay [8], in [4], in assay [9] and in [6] was > 30 µM throughout.
On to `CO/N=C(\C(=O)N[C@@H]1C(=O)N2C(C(=O)[O-])=C(C[n+]3cccc4c3CCC4)CS[C@H]12)c1csc(N)n1` [CEFPIROME], for which the AC50 in assay [7], in assay [4], in [9], in assay [3] and in [6] was > 30 µM in each case.
On to `NS(=O)(=O)c1cc(C2(O)NC(=O)c3ccccc32)ccc1Cl` (centres undefined) [CHLORTHALIDONE], for which the AC50 in assay [8], in assay [9] and in assay [5] was > 10 µM throughout.
For `CC[C@H]1OC(=O)[C@H](C)[C@@H](O[C@H]2C[C@@](C)(OC)[C@@H](O)[C@H](C)O2)[C@H](C)[C@@H](O[C@@H]2O[C@H](C)C[C@H](N(C)C)[C@H]2O)[C@](C)(OC)C[C@@H](C)C(=O)[C@H](C)[C@@H](O)[C@]1(C)O` [CLARITHROMYCIN], the AC50 in assay [1], in assay [4], in assay [9], in [5] and in assay [6] was > 30 µM each time.
For `Oc1c(I)cc(Cl)c2cccnc12` [CLIOQUINOL], the AC50 in assay [8], in assay [7], in [4], in assay [3] and in assay [6] was > 30 µM in each case.
With `COc1ccc2c(c1)[C@]13CCCC[C@@H]1[C@H](C2)N(C)CC3` [DEXTROMETHORPHAN], the AC50 was > 30 µM in assay [1], > 10 µM in assay [8], > 10 µM in assay [9] and > 30 µM in [5].
For the compound `O=c1oc2ccccc2c(O)c1Cc1c(O)c2ccccc2oc1=O` [DICUMAROL], the AC50 in assay [8], in assay [9] and in assay [5] was > 10 µM throughout.
With `CCn1cc(C(=O)O)c(=O)c2cc(F)c(N3CCNCC3)nc21` [ENOXACIN], the AC50 was > 30 µM in assay [1], > 10 µM in [8], > 10 µM in assay [9] and > 30 µM in [5].
`C#C[C@]1(O)CC[C@H]2[C@@H]3CCc4cc(OC)ccc4[C@H]3CC[C@@]21C` [MESTRANOL]: the figures for the AC50 in assay [8], in [9] and in assay [5] were > 10 µM, > 10 µM and > 30 µM, respectively.
`c1ccc2c(CC3=NCCN3)cccc2c1` [NAPHAZOLINE]: the half-maximal activity concentration (AC50) in assay [4] worked out at 0.0006 µM; in [3], 0.19 µM.
`CNC(=O)Oc1ccc2c(c1)[C@]1(C)CCN(C)[C@@H]1N2C` [PHYSOSTIGMINE]: the concentration at half-maximal activity (AC50) in [1], in assay [8], in assay [4], in assay [9], in [5] and in assay [6] was > 30 µM in each case.
Regarding `CNCCCC1c2ccccc2C=Cc2ccccc21` [PROTRIPTYLINE], the AC50 in [8] was > 10 µM; in assay [9], > 10 µM; in [5], > 30 µM.
Consider `COCCCOc1ccnc(C[S+]([O-])c2nc3ccccc3[nH]2)c1C` (centres undefined) [RABEPRAZOLE], for which the AC50 is > 30 µM in [1], > 10 µM in assay [8], > 10 µM in [9] and > 30 µM in [5].
Turning to `O=C(CCCN1CCC2(CC1)C(=O)NCN2c1ccccc1)c1ccc(F)cc1` [SPIPERONE], the AC50 was > 30 µM in assay [1]; > 30 µM in assay [7]; 0.0086 µM in assay [2]; 11.8 µM in assay [4]; 2.25 µM in assay [3]; 1.6 µM in assay [6].
For `CCSc1ccc2c(c1)N(CCCN1CCN(C)CC1)c1ccccc1S2` [THIETHYLPERAZINE], the half-maximal activity concentration (AC50) was > 30 µM in assay [4], > 30 µM in assay [9] and 1.6 µM in [6].
In the case of `CN(C)c1cc(NC(=O)CNC(C)(C)C)c(O)c2c1C[C@H]1C[C@H]3[C@H](N(C)C)C(O)=C(C(N)=O)C(=O)[C@@]3(O)C(O)=C1C2=O` [TIGECYCLINE], the AC50 in [1] was > 30 µM; in assay [7], > 30 µM; in assay [2] it was > 30 µM; in assay [9], > 30 µM; in assay [5] it was 39.5 µM; in assay [3], > 30 µM.

The values above are taken from ChEMBL document CHEMBL5291721, “A preclinical secondary pharmacology resource illuminates target-adverse drug reaction associations of marketed drugs” (Nat Commun, 2023).
